Measured values reported in US20230014226A1, “NEW COMPOUNDS AND METHODS” (BenevolentAI Bio Limited, priority 2019, published 2023).

Key:
[1] = tested on: HUVEC (human umbilical venous endothelial cells); assay: HUVEC Tube Formation assay; assay type: cell-based; conditions: 18 h incubation, read-out: Tube formation GI50
Protocol: HUVEC (human umbilical venous endothelial cells, 1.5×10^4/well, ATCC CRL-1730) are placed in an earlier prepared 96-well plate. Test substance and/or vehicle is then added to each well in a final concentration of 0.4% DMSO in growth medium under an atmosphere of 5% CO2 at 37° C. After an 18 h incubation period, morphology of the endothelial cell tubes, which resemble a capillary-like network, are evaluated by a confocal high-content imaging system. Disruption (anti-angiogenesis) of total tube length is measured from each photograph and determined relative to the vehicle control group. […] Compounds are screened at 30, 3, 0.3, 0.03 and 0.003 μM (or μg/mL) in triplicate.

[2] = molecular target: hERG ion channel (Homo sapiens, UniProt Q12809); assay: hERG QPatch automated patch clamp; assay type: cell-based; conditions: CHO cells stably expressing hERG, QPatch 48, tail current
Protocol: hERG IC50 data was supplied by Metrion using their standard assay protocol briefly detailed below.
hERG ion channel screening was assayed in CHO cells stably expressing the human ether-á-go-go related gene, using the QPatch 48 automated, chip-based planar patch clamp device. A Gigaohm seal between the cell membrane and treated silicon surface was obtained and specific external and internal buffered solutions applied to cells prior to recording. Following baseline vehicle treatment, compounds were applied in increasing concentrations (8 pt CRC), effects on hERG tail current amplitudes were measured in two-minute recordings.

[3] = tested on: α-synuclein in ReNcell VM Neuronal cells; assay: Modulation of α-synuclein aggregation; assay type: cell-based
Protocol: Compounds were assessed for their ability to modulate α-synuclein aggregation. ReNcell VM Neuronal cells were transduced with α-synuclein encoded adenovirus, and compounds were added after 24 hours. After 72 hours, compound was refreshed. After an additional 72 h, cells were fixated (a total of 6 days of compound treatment). Two distinct α-synuclein antibodies were added (Syn205 and MJF-14), imaging was performed on IN Cell 2200 at 10× magnification. Immunoreactivity is quantified by a high content algorithm. Compound data is normalized to a negative control (0.1% DMSO) and a positive control (10 μM KU0063794; CAS 938440-64-3).

[4] = tested on: murine Hb9-GFP+ motor neurons in co-culture with ALS patient iAstrocytes; assay: Human iAstrocyte - murine Hb9-GFP+ motor neuron co-culture; assay type: cell-based, human iAstrocytes
Description: iNPCs (induced Neuronal Progenitor Cells) were derived from ALS patient fibroblasts as described previously (Meyer et al. 20148). iNPCs were differentiated into iAstrocytes by culturing in iAsrocyte media for at least 5 days. Murine motor neurons expressing the green fluorescent protein (GFP) under the Hb9 motor neuron-specific promoter (called from now on Hb9-GFP+) were differentiated from murine embryonic stem cells via embryoid bodies (EBs), as previously described (Haidet-Phillips et al. 20119, Wichterle et al. 200210).
iNPCs and mESC were split into iAstrocyte media and mEB media respectively on the same day, such that iAstrocytes and motor neurons will have both differentiated for 7 days when seeded together in co-culture.
Changed media on iAstrocytes, and split using accutase if 90-100% confluent 3 days after seeding from iNPCs. iAstrocytes were left a further 2 days in iAstrocyte media until seeded onto 384-well plates.
Diluted fibronection 1:400 in PBS, and 5 μL added per well. The plate was incubated with fibronectin at room temp for at least 5 mins.
The media was removed from iAstrocytes, and washed in PBS. 1 mL accutase per 10 cm plate was added, and incubated at 37° C. for 4 mins. The plate was tapped to dislodge any remaining iAstrocytes. The iAstrocytes were resuspended in iAstro media, and centrifuged at 200×g for 4 mins. The supernatant was removed, the falcon was flicked to vortex the cells, and resuspended the cells in an appropriate amount of iAstrocyte media. Counted cells using the haemocytometer, and diluted cells to an appropriate dilution for seeding. Seeded 1-2,000 iAstrocytes in 35 μL media on fibronectin-coated 384-well plates. Centrifuged 384-well plates at 1,760×rpm for 60 s using a PK120 (ALC) centrifuged (in neurogenetics) to collect media and cells to base of wells. Plates were left for 24 h for iAstrocytes to adhere to plate.
Drugs were delivered in 100% drug-grade DMSO to iAstrocyte media using an Echo550 liquid handler (Labcyte). 384-well plates were centrifuged at 1,760×rpm for 60 s using a PK120 (ALC) centrifuge.
2 plates of EBs were collected in a 50 mL tube and centrifuged for 4 mins at 200×g. The supernatant was removed from EBs after centrifugation, and washed in 10 mL PBS then centrifuged again for 4 mins at 200×g, and PBS wash removed.
For each 50 mL tube, 2.75 mL EB dissociation buffer was added and then 250 μL 200 U/mL (10×) Papain. The solution was gently pipetted up and down 10 times, using a P1000 pipette, against the side of the falcon (EB pellet was not pipetted directly). 50 mL tube was put in 37° C. water bath and incubated for 5 mins. Tube removed every 3 mins and gently shaken. After 5 mins, additional 2 mL of EB dissociation and 100 μL 200 U/mL (10×) Papain were added, which was then pipette again 5 times with P1000 pipette, and returned to the water bath for another 5 mins. It was returned to water bath as before, and incubated for no longer than 15-20 mins.
Centrifuged for 5 mins at 300×g. Each 50 mL tube, 2.7 mL EB dissociation was prepared, to which 300 μL FBS and 150 μL 0.5 mg/mL DNaseI was added. The supernatant was removed from dissociated EBs and 3 mL of the FBS/DNaseI mix was added, pipetted up and down with P1000 pipette about 5 times. 5 mL FBS was added very slowly to the bottom of the falcon containing the dissociated EBs. The supernatant was removed and the cells very gently resuspended in about 3 mL MN media (more used if the pellet is large) and filtered through a 40 μm filter. 1 mL extra MN media was added to wash the filter.
2,500 murine Hb9-GFP+ motor neurons were seeded per well in 10 μL motor neuron media on top of the pre-treated iAstrocytes. 384-well plates were centrifuged at 1,760×rpm for 60 s using a PK120 (ALC) centrifuge.
Day8 15 μL motor neuron media were added per well. Hb9-GFP+ motor neurons were imaged using an INCELL analyser 2000 (GE Healthcare)—day 1 of co-culture. […]

Sequence of hERG ion channel (Q12809 whole entry): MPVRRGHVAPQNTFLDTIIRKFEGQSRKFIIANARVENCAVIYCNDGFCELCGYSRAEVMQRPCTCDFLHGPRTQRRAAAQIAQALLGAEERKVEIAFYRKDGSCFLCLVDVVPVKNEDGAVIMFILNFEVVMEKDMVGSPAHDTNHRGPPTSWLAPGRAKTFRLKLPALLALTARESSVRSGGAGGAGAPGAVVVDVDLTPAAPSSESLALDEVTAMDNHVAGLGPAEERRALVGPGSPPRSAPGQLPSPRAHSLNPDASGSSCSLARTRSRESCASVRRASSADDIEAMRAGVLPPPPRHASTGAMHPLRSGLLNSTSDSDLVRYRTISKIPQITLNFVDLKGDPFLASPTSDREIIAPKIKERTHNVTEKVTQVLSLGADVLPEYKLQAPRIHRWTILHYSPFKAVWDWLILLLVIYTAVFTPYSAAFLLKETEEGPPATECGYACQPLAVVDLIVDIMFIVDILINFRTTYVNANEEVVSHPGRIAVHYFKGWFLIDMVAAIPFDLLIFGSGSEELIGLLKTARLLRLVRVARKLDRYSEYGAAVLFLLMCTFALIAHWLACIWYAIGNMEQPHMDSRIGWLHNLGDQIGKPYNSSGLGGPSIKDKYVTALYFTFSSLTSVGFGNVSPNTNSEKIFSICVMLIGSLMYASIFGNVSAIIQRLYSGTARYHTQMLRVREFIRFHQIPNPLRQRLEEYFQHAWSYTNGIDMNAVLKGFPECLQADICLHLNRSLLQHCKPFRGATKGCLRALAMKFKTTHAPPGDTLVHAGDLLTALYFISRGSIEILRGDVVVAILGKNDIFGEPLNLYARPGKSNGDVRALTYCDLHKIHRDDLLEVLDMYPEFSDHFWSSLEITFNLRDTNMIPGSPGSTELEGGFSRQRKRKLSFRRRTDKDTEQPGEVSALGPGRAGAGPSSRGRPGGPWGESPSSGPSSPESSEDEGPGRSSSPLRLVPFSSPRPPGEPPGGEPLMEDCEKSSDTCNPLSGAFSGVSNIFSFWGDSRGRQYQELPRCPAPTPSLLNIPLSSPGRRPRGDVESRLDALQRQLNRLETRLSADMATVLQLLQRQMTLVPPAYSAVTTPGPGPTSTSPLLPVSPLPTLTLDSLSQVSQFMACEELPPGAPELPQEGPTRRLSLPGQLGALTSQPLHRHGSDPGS

Q: What does the source list for Cc1ccc(C(=O)Nc2cn(C(C)C)cn2)cc1C#Cc1cccnc1 [Example 25, N-(1-isopropylimidazol-4-yl)-4-methyl-3-[2-(3-pyridyl)ethynyl]benzamide]?
A: GI50 [1]: > 10 µM; IC50 [2]: > 10 µM; amount of α-synuclein present in ReNcell VM neuronal cells (FIG. 4) ([3]; 6 days of compound treatment, antibodies Syn205 and MJF-14): dose dependant reduction; IC50 ([3]; ReNcell VM, 100% = reduction equal to 10 μM KU0063794, 0% = 0.1% DMSO): 1 to 10 µM; rescue of motor neuron survival in co-culture with patient-derived iAstrocytes (FIG. 3) ([4]; 72 hours co-culture, dose dependant, maximum responses close to positive control (1 μM Nilotinib)): rescue motor neuron survival; efficacy at very high concentrations (motor neuron survival) ([4]; potentially due to compound toxicity): reduction in efficacy at very high concentrations
